Test results published in ChEMBL document CHEMBL1151086, “Sulfobetaine zwitterionic inhibitors of squalene synthase” (Bioorg Med Chem Lett, 1996).

Columns and labels:
[1] = biological target: T1, Squalene synthase (Rattus norvegicus, UniProt Q02769); assay: Compound was evaluated for its inhibitory activity against rat hepatic squalene synthase at a concentration of 1000 uM; NI = No inhibition
T1 sequence (Q02769 whole entry): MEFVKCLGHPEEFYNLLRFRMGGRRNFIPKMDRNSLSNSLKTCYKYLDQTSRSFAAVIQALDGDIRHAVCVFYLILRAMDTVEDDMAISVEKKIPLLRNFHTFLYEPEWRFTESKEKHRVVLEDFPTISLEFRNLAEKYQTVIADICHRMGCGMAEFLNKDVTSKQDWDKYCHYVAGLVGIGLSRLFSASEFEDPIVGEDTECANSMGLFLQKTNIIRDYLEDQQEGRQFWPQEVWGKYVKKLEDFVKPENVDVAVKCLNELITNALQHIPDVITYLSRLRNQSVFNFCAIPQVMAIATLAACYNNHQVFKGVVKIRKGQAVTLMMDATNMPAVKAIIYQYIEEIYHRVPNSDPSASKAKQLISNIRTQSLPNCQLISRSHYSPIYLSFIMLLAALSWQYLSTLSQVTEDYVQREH

[2] = biological target: T1, Squalene synthase; assay: Inhibitory activity against rat hepatic squalene synthase

IC50 [1] | IC50 [2] | Compound
Not Active |  | C[N+](C)(CCCCS(=O)(=O)[O-])CCc1ccccc1
 | 15 µM | CC(C)=CCC/C(C)=C/CC/C(C)=C/C[N+](C)(C)CCCCS(=O)(=O)[O-]
 | 25 µM | C[N+](C)(CCCCc1ccc(-c2ccccc2)cc1)CCCCS(=O)(=O)[O-]
 | 60 µM | C[N+](C)(CCCCCCc1ccc(-c2ccccc2)cc1)CCCCS(=O)(=O)[O-]
 | 5 µM | C[N+](C)(CCCCCc1ccc(-c2ccccc2)cc1)CCCCS(=O)(=O)[O-]
 | 6 µM | C[N+](C)(CCCCCCCCCCc1ccccc1)CCCCS(=O)(=O)[O-]
Not Active |  | C[N+](C)(CCCCS(=O)(=O)[O-])Cc1ccccc1
 | 2 µM | C[N+](C)(CCCCCCCCCc1ccccc1)CCCCS(=O)(=O)[O-]
 | 8 µM | C[N+](C)(CCCCCCCCc1ccccc1)CCCCS(=O)(=O)[O-]
 | 100 µM | C[N+](C)(CCCCCCc1ccccc1)CCCCS(=O)(=O)[O-]
